The results in this text go back to US4771044A, “Tetraoxo compounds and pharmaceutical compositions” (Kali-Chemie Pharma GmbH, priority 1985, dated 1988).

What is called ED50 is the dose that gives a 50% effect, or the effect in half of the subjects.

The subject of one series is male mice. The settings on record: mouse, in vivo, 1440 min. As for the experimental part:
1. Determination of Minimum Toxic Dose
Male mice weighing 20 to 25 g are administered per os and i.p. maximum doses of 300 mg/kg of the test substances. The animals are carefully observed for three hours for toxic symptoms. During a period of 24 hours following the administration all symptoms and deaths are recorded. Side reactions are likewise observed and recorded. When death or strong toxic symptoms are observed, further mice are administered increasingly smaller doses. The lowest dose which produces death or strong toxic symptoms is given as the minimum toxic dose.

Series [1] has as its system female Wistar rats. Put plainly: Behavioral changes of rats in punishment conflict situation (Skinner box), anxiolytic properties. It counts as in vivo, rat. The settings on record: po, 1 h. As for the experimental part: 4. Evaluation of anxiolytic properties.
For evaluating the anxiolytic properties of the compounds a modified method according to Davidson et al (see The Benzodiazepines, Raven Press New York 1973 pp 327-345) is used, whereby the ability of the compounds to change the behavior of rats in a punishment conflict situation is examined.
In order to create the conflict situation the following experimental set up and procedure are used:
The tests are performed in Skinner boxes which are provided with an electrifyable grid-floor, a lever which has to be pressed by the rat, an automatic feeder and 2 different light sources. Female Wistar rats having a body weight of 180-300 g are used. Prior to testing the animals are trained to obtain food by pressing the lever, whereby 2 phases of different conditions alternate. The two phases are distinguished by different lightening. During one phase a food reward is given at a fixed ratio after each 10th lever press (=FR 10), yet simultaneous by with the food pellet an electric food shock punishment is delivered. During the other phase food reward is obtained without any electric punishment, yet lever pressing is rewarded with a food pellet far less frequently and at varying time intervals only (average interval 30 sec=VI30). During each […]. trial session […] alternate with 6 FP10 phases (120 sec. each).
For testing the compounds each animal is subjected to the 47 min. test procedure once a day on 4 consecutive days always at the same time. On days 1, 2 and 3 the animals are given per os 10 ml/kg of 2% tylose soluton 60 min. prior to test begin. On day 4 they are given a dose of the test compound in the tylose solution. For each animal the number of lever press responses in the punished FR10 phases and in the unpunished VI30 phases are recorded seperately for each day. For each animal the mean values from the results of the first three days are taken as control values. The results from the 4th day are compared with these control values. The lowest doses which produce significant changes in the number of lever presses are determined for the unpunished phase and for the punished phase as the minimum effective doses (=MEDup and MEpp). Increased activity during the punished phase is due to anxiolytic effects of the test compound. Reduced activity during the unpunished phase is an indication of sedative effects of the compound.

The subject of series [2] is female Wistar rats. Put plainly: CAR-test (conditioned avoidance response) in rats, antipsychotic properties. It counts as in vivo. The settings on record: po, 1 h, rat, per os, one hour prior to testing. As for the experimental part: 2. Evaluation of antipsychotic properties in the CAR-test procedure in rats.
The CAR test is performed in a modification of the experimental set up described by Capaldi et al (see R. D. Myers (ed): Methods in Psychobiology, Academic Press, New York, pp. 71-74). Fully automated one-way shuttle boxes are used, which are divided into 2 compartments by a wall with a hole. The floor of the box is a grid of stainless steel through which electric stimuli can be delivered. The ceiling of the box is provided with a lamp and a loudspeaker giving a buzzertone. In order to avoid the electric stimulus in the first starting compartment the animals can cross over into the safe second compartment.
During the test procedure the animals are placed into the starting compartment and at the same time the light and the loudspeaker are switched on as a warning signal (=conditioned stimulus). If at this warning signal already the animals cross over into the safe compartment, this is considered a CAR and is automatically recorded. If the animals don't cross over into the safe compartment within 5 sec. an electric shock is delivered additionally through the floor grid (=unconditioned stimulus) for a period of up to 15 sec. If at the presentation of the electric shock the animals cross over into the safe compartment, this is considered an unconditioned escape response (=UER). As soon as the animals have crossed over into the safe compartment the stimuli are switched off automatically.
For the test female Wistar rats having a body weight of 140-210 g are used. They are trained in a 20 trial session on the day before and only such animals which show CAR exclusively are used for the drug experiments.
Groups of 4 animals are used for each dose of the test compounds, the animals are placed into the test situation 15 times each, and the average value of the last 10 trials is taken into account.
The test compounds are administered per os in a volume of 10 ml/kg of 2% tylose solution one hour prior to testing. To a control group tylose solution only is administered. The dose which reduces CAR by 50% and thus leads to a 50% avoidance block is determined (=ED50 AB). Furthermore the dosis which reduces UER by 50% and thus leads to a 50% escape block is determined (=ED50 EB).

Another series has as its system male NMRI-mice. Put plainly: Inducement of head-shaking syndrome in mice by interaction with subthreshold dose of 5-HTP, antidepressive properties. The class given is in vivo. The settings on record: mouse, p.o.; pargyline 25 mg/kg i.p. pretreatment, 50 mg/kg 5-HTP i.p.; 60 min. As for the experimental part: 3. Evaluation of antidepressive properties.
This effect is typical of antidepressives. For this a modified method according to Corne et al (see Br.J.Pharmacol. 20, pp 106-120) is used to determine the ability of the compounds to induce a head-shaking syndrome in mice in interaction with a subthreshold dose of 5-HTP.
Male NMRI-mice having a body weight of 20-30 g are used. 60 min. prior to administration of the test compounds the animals are given an i.p. injection of 25 mg/kg of the MAO-inhibitor pargyline dissolved in a volume of 10 ml/kg of 2% tylose solution. Groups of 20 animals are used for each dose of the test compounds. The test compounds are administered per os in a volume of 10 ml/kg of 2% tylose solution. After 30 min. 50 mg/kg 5-HTP in a volume of 10 ml/kg of 2% tylose solution are injected i.p. and each animal is placed in a case individually. A group of control animals receives only the pargyline injection, the 5-HTP injection and 2% tylose solution p.o.
60 min. after administration of the test compounds (=30 min. after 5-HTP injection) the animals are observed for 120 sec. in order to check, whether or not the head-shaking-syndrome occurs.
The ED50 is defined as the dose at which the number of animals showing a head-shake-syndrome is increased by 50% as compared with the control group.

The mark [3] stands for this setting: rat, p.o., punished FR10 phase, 60 min. prior to test, read-out: MEDPP (minimum effective dose, punished phase).
The mark [4] stands for this setting: rat, p.o., unpunished VI30 phase, 60 min. prior to test, read-out: MEDUP (minimum effective dose, unpunished phase).
The mark [5] stands for this setting: read-out: ED50 AB (dose leading to 50% avoidance block).
The mark [6] stands for this setting: read-out: ED50 EB (dose leading to 50% escape block).

Read-outs that look alike come from different tables or passages of the source. Some results are limits rather than exact numbers.

In the case of `CCCCN1C(=O)C2C(=O)N(CCCCN3CCN(c4ccccc4OCC)CC3)C(=O)C(C1=O)C2(C)C` [Compound 3110], the “Minimum Toxic Dose” value with male mice (ip) and in the series with male mice (po) was more than 300 mg/kg each time. Also, the minimal effective dose in the series with female Wistar rats [1] (setting [3]) was 6.8 µmol/kg; in the series with female Wistar rats [1] (setting [4]), more than 215 µmol/kg. Moreover, the ED50 turned out to be 50 µmol/kg in the series with female Wistar rats [2] (setting [5]) and 200 µmol/kg in the series on female Wistar rats [2] (setting [6]).

Consider `CCCCN1C(=O)C2C(=O)N(CCCCN3CCN(c4ncccn4)CC3)C(=O)C(C1=O)C2(C)C` [Compound 3304], for which the minimal effective dose was 21.5 µmol/kg in the series with female Wistar rats [1] (setting [3]) and more than 215 µmol/kg with female Wistar rats [1] (setting [4]).

Regarding `CCCCN1C(=O)C2C(=O)N(CCCCN3CCN(c4ccccc4OC)CC3)C(=O)C(C1=O)C2(C)C` [Compound 3107], the figures for the “Minimum Toxic Dose” value in the series on male mice (ip) and in the series on male mice (po) were 200 mg/kg and more than 300 mg/kg, respectively. Moreover, the minimal effective dose in the series with female Wistar rats [1] (setting [3]) amounted to 14.7 µmol/kg; in the series on female Wistar rats [1] (setting [4]), 147 µmol/kg. Also, the figures for the ED50 with female Wistar rats [2] (setting [5]) and in the series with female Wistar rats [2] (setting [6]) were 27 µmol/kg and 70 µmol/kg, respectively.

On to `CN1C(=O)CN=C(c2ccccc2)c2cc(Cl)ccc21` [Diazepam, reference compound], for which the minimal effective dose was 31.6 µmol/kg with female Wistar rats [1] (Rattus norvegicus, read-out: MEDPP (minimum effective dose, punished phase)) and 46.4 µmol/kg in the series on female Wistar rats [1] (Rattus norvegicus, read-out: MEDUP (minimum effective dose, unpunished phase)).

With `CCCCCCN1C(=O)C2C(=O)N(CCCCCN3CCN(c4ccccc4OC)CC3)C(=O)C(C1=O)C2(C)C` [Compound 3142], the “ED50, inducement of head-shaking-syndrome by interaction with 5-HTP” value (“ED50, inducement” for short) in the series with male NMRI-mice worked out at 74 µmol/kg.

For `CCCCN1C(=O)C2C(=O)N(CCCCN3CCN(c4ccc(F)cc4)CC3)C(=O)C(C1=O)C2(C)C` [Compound 3135], the “ED50, inducement” value in the series with male NMRI-mice came out at 72 µmol/kg. Further, the “Minimum Toxic Dose” value in the series with male mice (ip) and with male mice (po) was more than 300 mg/kg each time.

For the compound `CCCCCCN1C(=O)C2C(=O)N(CCCCCN3CCN(c4cccc(C)c4)CC3)C(=O)C(C1=O)C2(C)C` [Compound 3143], in the series with male NMRI-mice, the “ED50, inducement” value came to 130 µmol/kg. The “Minimum Toxic Dose” value in the series with male mice (ip) and in the series on male mice (po) was more than 300 mg/kg each time.
